{"source": "paper PMC5795001", "about": "“The activity of the C4-dicarboxylic acid chemoreceptor of Pseudomonas aeruginosa is controlled by chemoattractants and antagonists” (Scientific Reports, 2018)", "key": {"[1]": {"target": "T1, PA2652-LBD (Pseudomonas aeruginosa, UniProt Q9I0I6)", "T1 construct": "The DNA fragment encoding the LBD of PA2652 (Lys^34–Thr^205) was amplified; His-tag (vector-encoded by pET28b(+) via NdeI site); made in house; host or cells: Escherichia coli BL21 (DE3)", "T1 sequence (Q9I0I6 34-205)": "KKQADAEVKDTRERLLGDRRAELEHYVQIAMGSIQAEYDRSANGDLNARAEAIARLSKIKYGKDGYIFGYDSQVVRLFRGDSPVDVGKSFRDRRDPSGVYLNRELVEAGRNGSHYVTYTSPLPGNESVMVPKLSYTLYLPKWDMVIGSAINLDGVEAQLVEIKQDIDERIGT", "type": "binding, Pseudomonas aeruginosa PAO1", "details": "DSF screening as described in text; 2 °C threshold for significant hits", "source_text": "To identify ligands that may bind to the LBD of PA2652, we conducted Differential Scanning Fluorimetry (DSF) based high throughput ligand screening assays as described previously[37],[38]. DSF analyses permit the determination of melting temperature (Tm) values, which corresponds to the temperature at which half the protein is in its native conformation whereas the remaining half has undergone thermal unfolding. Since ligand binding typically enhances the thermal stability of proteins, increases in the Tm in the presence of ligands may be indicative of specific binding. We screened 450 different compounds available in five different ligand arrays from Biolog (Supplementary Fig. S3). The screened collection included different carbon and nitrogen sources, phosphorous and sulfurous compounds as well as different nutrient supplements.\nThermal shift assays were performed on a MyIQ2 Real-Time PCR instrument (BioRad). Ligands from the different compound arrays (Biolog, Hayward, CA, USA; see Supplementary Fig. S3) were dissolved in 50 μl of MilliQ water, which, according to the manufacturer, corresponds to a concentration of 10–20 mM. Screening was performed using 96 wells plates. Each well contained 20 μM of protein dialyzed into TNG buffer (20 mM Tris/HCl, 150 mM NaCl, 10% (v/v) glycerol, pH 6.7), 2.5 μl of the resuspended compounds and SYPRO Orange (Life Technologies) at 5× concentration. In a single well (ligand free protein) the compound was substituted by water. Samples were heated from 23 °C to 85 °C at a scan rate of 1 °C/min. The protein unfolding curves were obtained by following the changes in SYPRO Orange fluorescence. Melting temperatures were determined using the first derivative values from the raw fluorescence data."}, "[2]": {"target": "T1, PA2652-LBD", "test": "Sedimentation velocity analytical ultracentrifugation", "parameters": "species or system Pseudomonas aeruginosa PAO1", "details": "1 mM L-malic acid, protein 5-20 µM, 7 °C, PIPES buffer", "protocol": "To address this issue, PA2652-LBD was analysed by sedimentation velocity analytical ultracentrifugation (AUC). Initial experiments were conducted using concentrations of ligand-free protein ranging from 5 to 20 µM. […] The molecular weight extracted from the sedimentation coefficient and the shape was of 41 kDa. Considering that the sequence-derived mass of the PA2652-LBD monomer is 21.5 kDa, the observed species is clearly a protein dimer. Since no shift to higher sedimentation coefficients was measured with increasing protein concentrations (data not shown), the dimer species can be considered stable over the protein concentration range analysed. The above experiments were also performed in the presence of saturating concentrations of L-malic acid.\nExperiments were performed on a Beckman Coulter Optima XL-A analytical ultracentrifuge (Beckman-Coulter, Palo Alto, CA, USA) equipped with UV-visible absorbance detection system, using an An50Ti 8-hole rotor and 12 mm path-length charcoal-filled epon double-sector centrepieces. […] Light at a wavelength of 234 nm was recorded in the absorbance optics mode. […] Buffer density (ρ = 1.0015 g/mL) and viscosity (η = 0.01449 Poise) at 7 °C were calculated from the buffer composition using SEDNTERP software. […]"}, "[3]": {"tested_on": "Pseudomonas aeruginosa PAO1 cheA1 mutant", "test": "Capillary chemotaxis assay, cheA1 mutant", "type": "cell-based", "details": "10 mM L-malic acid", "protocol": "(§1) A recent bioinformatic study has predicted that PA2652 signals through the che pathway. To verify this prediction we conducted chemotaxis assays to L-malic acid using the wt strain as well as mutants in cheA1 and cheA2, encoding respectively the histidine kinases of the che and che2 pathways.\n(§2) Overnight cultures of P. aeruginosa strains were diluted to an OD660 of 0.05 in MS medium (30 mM Na2HPO4, 20 mM KH2PO4, 25 mM NH4NO3, 1 mM MgSO4) supplemented with 6 mg l^−1 Fe-citrate, trace elements[81] and 15 mM glucose as carbon source, and grown at 37 °C with orbital shaking (200 rpm). At an OD660 of 0.4 ([…]) cultures were centrifuged at 1,700 × g for 5 min and the resulting pellet was washed twice with chemotaxis buffer (50 mM potassium phosphate, […], 0.05% (v/v) glycerol, pH 7.0). Subsequently, the cells were resuspended in the same buffer, adjusted to an OD660 of 0.1 and 230 µl aliquots of the bacterial cultures were placed into 96-well plates. For the quantitative assays, one-microliter capillary tubes (Microcaps, Drummond Scientific, Ref. P1424) were heat-sealed at one end and filled with either the chemotaxis buffer (negative control) or chemotaxis buffer containing the chemoeffectors to test. The capillaries were immersed into the bacterial suspensions at its open end. […] The number of colony forming units was determined after overnight incubation. […]"}, "[4]": {"tested_on": "Pseudomonas aeruginosa PAO1 cheA2 mutant", "test": "Capillary chemotaxis assay, cheA2 mutant", "type": "cell-based", "details": "10 mM L-malic acid", "protocol": "as §1, §2"}}, "note": "Entries after “also recorded” stand apart in the source; their conditions may differ.", "data": [{"smiles": "O=C(O)C[C@H](O)C(=O)O", "note": "[L-malic acid]", "values": [{"measurement": "Tm increases", "setting": "[1]", "value": "more than 2 °C"}, {"measurement": "Effect of ligand binding on oligomerization state of PA2652-LBD", "setting": "[2]", "value": "does not have any significant effects on the oligomerization state"}, {"measurement": "Chemotaxis in cheA1 mutant", "setting": "[3]", "value": "abolished chemotaxis; also recorded: no response was observed"}, {"measurement": "Chemotaxis in cheA2 mutant", "setting": "[4]", "value": "almost identical to that of wt strain; also recorded: indistinguishable from that of the wt"}]}]}
